The record followed here is patent publication US20260234136A1, “ISOXAZOLIDINES AS RIPK1 INHIBITORS AND USE THEREOF” (GENZYME CORPORATION, priority 2023, published 2026).

Converted amounts (≈) assume the structure as drawn. Where only a bound is given, the exact number is not on record here.

In series [1] the test system is U937 cells. As to the kind of experiment: Cellular assay in U937 cells to measure the activity of RIPK1-inhibitors on cell death (necroptosis). Type of series: cell-based. The note with it: Homo sapiens, U-937, 50 μM zVAD.fmk and 100 ng/ml recombinant human TNFα, overnight (18 to 24 hrs), MTS readout.
Series [2] in a line: physchem. The note with it: 50 mM phosphate buffer, 25 °C, pH 7.4, aqueous buffer, thermodynamic from solid.

One may read the IC50 as the concentration needed to halve the response being measured. For orientation: solubility means the concentration that dissolves in the medium under given conditions. Higher therefore signals much dissolved substance. In the case of `CO[C@@H]1CCCN(c2ccnc(N3CCC(C(=O)N4OCC[C@H]4c4ccc(C)nc4)CC3)n2)C1=O` [Example 93, (3R)-3-methoxy-1-[2-[4-[(3S)-3-(6-methylpyridin-3-yl)-1,2-oxazolidine-2-carbonyl]piperidin-1-yl]pyrimidin-4-yl]piperidin-2-one], the IC50 in series [1] was 0.436 µM. Further, in series [2], the solubility at 16 h is greater than 1040 µM.

On to `CO[C@H]1CCCN(c2ccnc(N3CCC(C(=O)N4OCC[C@H]4c4cncc(F)c4)CC3)n2)C1=O` [Example 97, (3S)-1-[2-[4-[(3S)-3-(5-fluoropyridin-3-yl)-1,2-oxazolidine-2-carbonyl]piperidin-1-yl]pyrimidin-4-yl]-3-methoxypiperidin-2-one], for which the IC50 in series [1] came to 0.086 µM. In series [2], this compound displayed a solubility at 16 h greater than 1030 µM.

Take `O=C(C1CCN(c2nccc(N3CCC(F)(F)C3=O)n2)CC1)N1OCC[C@H]1c1cncc(F)c1` [Example 75, 3,3-difluoro-1-[2-[4-[(3S)-3-(5-fluoropyridin-3-yl)-1,2-oxazolidine-2-carbonyl]piperidin-1-yl]pyrimidin-4-yl]pyrrolidin-2-one]: the IC50 in series [1] stood at 0.058 µM. The same compound gave a solubility at 16 h in series [2] of 98.4 µM (≈ 46.9 µg/mL).

On to `O=C(C1CCN(c2nccc(N3CCCC4(CC4)C3=O)n2)CC1)N1OCC[C@H]1c1cnccn1` [Example 57, 5-[2-[4-[(3S)-3-pyrazin-2-yl-1,2-oxazolidine-2-carbonyl]piperidin-1-yl]pyrimidin-4-yl]-5-azaspiro[2.5]octan-4-one], for which the IC50 in series [1] worked out at 0.059 µM. In addition, the solubility at 16 h in series [2] was greater than 1080 µM.

For the compound `Cc1ccc([C@@H]2CCON2C(=O)C2CCN(c3nccc(N4CCCC4=O)n3)CC2)cn1` [Example 81, 1-[2-[4-[(3S)-3-(6-methylpyridin-3-yl)-1,2-oxazolidine-2-carbonyl]piperidin-1-yl]pyrimidin-4-yl]pyrrolidin-2-one], the IC50 in series [1] was 0.052 µM. This compound showed a solubility at 16 h in series [2] greater than 1150 µM.

Turning to `Cc1ncc([C@@H]2CCON2C(=O)C2CCN(c3nccc(N4CCOC4=O)n3)CC2)cc1F` [Example 65, 3-[2-[4-[(3S)-3-(5-fluoro-6-methylpyridin-3-yl)-1,2-oxazolidine-2-carbonyl]piperidin-1-yl]pyrimidin-4-yl]-1,3-oxazolidin-2-one], the 50% inhibitory concentration (IC50) in series [1] was 0.006 µM. The compound also registered a solubility at 16 h in series [2] of 209 µM (≈ 95.5 µg/mL).

`Cc1ccc([C@@H]2CCON2C(=O)[C@@H]2CCN(c3ncnc(-c4ccnn4C)n3)CC23CC3)cn1` [Example 69, [(8R)-5-[4-(2-methylpyrazol-3-yl)-1,3,5-triazin-2-yl]-5-azaspiro[2.5]octan-8-yl]-[(3S)-3-(6-methylpyridin-3-yl)-1,2-oxazolidin-2-yl]methanone]: the IC50 in series [1] was 0.009 µM. The compound also yielded a solubility at 16 h in series [2] of 601 µM (≈ 277 µg/mL).

Regarding `Cc1nccn1-c1cc(N2CCC(C(=O)N3OCC[C@H]3c3cnccn3)CC2)ncn1` [Example 31, (S)-(1-(6-(2-methyl-1H-imidazol-1-yl)pyrimidin-4-yl)piperidin-4-yl)(3-(pyrazin-2-yl)isoxazolidin-2-yl)methanone], the IC50 in series [1] turned out to be 0.032 µM. In addition, in series [2], the solubility at 16 h was greater than 1190 µM.

In the case of `Cc1ccc([C@@H]2CCON2C(=O)C2CCN(c3ncnc(-c4nccs4)n3)CC2)cn1` [Example 38, [(3S)-3-(6-methylpyridin-3-yl)-1,2-oxazolidin-2-yl]-[1-[4-(1,3-thiazol-2-yl)-1,3,5-triazin-2-yl]piperidin-4-yl]methanone], the IC50 in series [1] stood at 0.051 µM. In addition, the solubility at 16 h in series [2] worked out at 275 µM (≈ 120 µg/mL).

In the case of `Cc1nc([C@@H]2CCON2C(=O)C2CCN(c3ncnc(-n4ccnc4C)n3)CC2)cs1` [Example 23, [1-[4-(2-methylimidazol-1-yl)-1,3,5-triazin-2-yl]-4-piperidyl]-[(3S)-3-(2-methylthiazol-4-yl)isoxazolidin-2-yl]methanone], the IC50 in series [1] is 0.001 µM. For the same compound, the solubility at 16 h in series [2] is greater than 1140 µM.
